Test results reported in US12188937B2, “Peptoid compound and detection chip coupled with peptoid compound on the surface” (BEIJING BOE TECHNOLOGY DEVELOPMENT CO., LTD., priority 2019, dated 2025).

Target: T1, EpCAM protein (Homo sapiens, UniProt P16422)
T1 construct: purchased Sino Biological Inc
T1 sequence (P16422 24-314): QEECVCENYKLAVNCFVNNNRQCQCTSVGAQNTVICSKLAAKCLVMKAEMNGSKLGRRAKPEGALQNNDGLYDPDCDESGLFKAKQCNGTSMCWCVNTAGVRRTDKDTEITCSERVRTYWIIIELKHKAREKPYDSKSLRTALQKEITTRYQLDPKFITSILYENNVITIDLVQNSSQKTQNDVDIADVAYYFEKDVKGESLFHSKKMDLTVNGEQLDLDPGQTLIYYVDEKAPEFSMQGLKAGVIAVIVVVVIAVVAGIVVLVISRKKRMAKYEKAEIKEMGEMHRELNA
Assay: surface plasmon resonance imaging (SPRi) test of binding ability of chip-spotted peptoid to EpCAM protein
Conditions: EpCAM 5.68-91.2 nM in PBS, binding 300 s, dissociation 300 s, fitted with BIAevalution 4.1, read-out: equilibrium dissociation constant KD

- Kd: 18.7 nM
SMILES: NCCCCNC(=O)CN(CCc1ccc(-c2ccccc2)cc1)C(=O)CN(CCC(=O)O)C(=O)CNCCc1ccccc1 [Formula II]
